Results on five molecules are retold here after US20180022780A1, “STABILIZATION ADRENOMEDULLIN DERIVATIVES AND USE THEREOF” (priority 2014, published 2018).

Bridge positions count the residues as written; N and C are the ends. Square brackets hold non-standard residues; d marks the D form. Peptide text beside a SMILES is read from it. * marks the point of attachment. Palmitoyl = CCCCCCCCCCCCCCCC(=O)*; NMeI = CC[C@H](C)[C@H](NC)C(=O)O; Orn = NCCC[C@H](N)C(=O)O

In test [1] the target is T1, human adrenomedullin-receptor (Homo sapiens, UniProt O60895+Q16602).
T1 construct: expressed in transfected cells; host or cells: CHO (Chinese hamster ovary) recombinant reporter cell line with aequorin
Nature of the test: Tests on a recombinant adrenomedullin-receptor reporter cell (CHO, aequorin luminescence). It counts as cell-based. Conditions: Table 1, CHO cell line carrying the human adrenomedullin-receptor. On the procedure: Activation of the receptor by ligands was measured by aequorin luminescence. Construction of the cell line and measurement procedure has been described in detail [Wunder F., Rebmann A., Geerts A, and Kalthof B., Mol Pharmacol, 73, 1235-1243 (2008)]. In brief: Cells were seeded on opaque 384-well microtiter plates at a density of 4000 cells/well and were grown for 24 h. After removal of culture medium, cells were loaded for 3 h with 0.6 μg/ml coelenterazine in Ca^2+-free Tyrode solution (130 mM sodium chloride, 5 mM potassium chloride, 20 mM HEPES (4-(2-hydroxyethyl)-1-piperazineethanesulfonic acid), 1 mM magnesium chloride, and 4.8 mM sodium hydrogen carbonate, pH 7.4) supplemented with 0.2 mM 3-Isobutyl-1-methylxanthine (IBMX) in a cell culture incubator. Examples were added for 6 min in calcium^2+-free Tyrode solution containing 0.1% bovine serum albumin. Immediately before adding calcium^2+ to a final concentration of 3 mM measurement of the aequorin luminescence was started by use of a suitable luminometer. Luminescence was measured for 60 s. In a typical experiment compounds were tested in a concentration range of 1×10^−13 to 3×10^−6 M.

Test [2] addresses T2, CLR fused to EYFP and RAMP2 fused to ECFP (Homo sapiens, UniProt O60895+Q16602).
T2 construct: EYFP; ECFP; expressed in transfected cells; host or cells: HEK-293 cells, transient co-transfection
Nature of the test: cAMP assay (CRE luciferase reporter, HEK-293 cells transiently co-transfected with CLR and RAMP2). It counts as cell-based. The note with it: Table 2, cAMP assay; HEK-293, CLR/RAMP2, CRE luciferase, 3 h stimulation, normalized to [G^14]ADM(14-52). Put shortly:
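HEK-293 cells transiently co-transfected with CLR-EYFP, RAMP2-ECFP and a CRE-luc2P luciferase reporter were stimulated with ligands (eight concentrations, triplicate) for 3 h at 37 °C. Luminescence was corrected to 5 µM forskolin, normalized to [G^14]ADM(14-52) standard, and fitted by non-linear regression to dose-response curves.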

T2 sequence (Q16602 23-461): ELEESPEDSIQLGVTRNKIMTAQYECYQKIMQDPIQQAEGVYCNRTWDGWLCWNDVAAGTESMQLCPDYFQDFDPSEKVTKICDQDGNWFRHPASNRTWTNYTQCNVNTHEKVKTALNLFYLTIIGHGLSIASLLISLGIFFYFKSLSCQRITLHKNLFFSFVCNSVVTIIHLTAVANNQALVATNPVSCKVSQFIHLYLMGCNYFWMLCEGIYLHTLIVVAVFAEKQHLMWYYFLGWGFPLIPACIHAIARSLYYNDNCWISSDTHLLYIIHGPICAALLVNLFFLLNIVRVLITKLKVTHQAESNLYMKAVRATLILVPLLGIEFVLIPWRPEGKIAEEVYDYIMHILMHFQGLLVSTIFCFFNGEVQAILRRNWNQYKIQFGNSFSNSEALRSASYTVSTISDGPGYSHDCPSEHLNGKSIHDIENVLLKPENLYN
T2 sequence (O60895 43-175): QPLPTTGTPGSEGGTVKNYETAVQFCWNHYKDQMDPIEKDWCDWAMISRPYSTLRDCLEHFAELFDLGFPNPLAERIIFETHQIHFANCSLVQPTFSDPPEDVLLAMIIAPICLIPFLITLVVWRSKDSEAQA
T1 sequence (Q16602 23-461): as the sequence (Q16602 23-461) above
T1 sequence (O60895 43-175): as the sequence (O60895 43-175) above

Consider `CCCCCCCCCCCCCCCC(=O)NCCCC[C@H](N)C(=O)NCC(=O)N[C@H]1CCCCNC(=O)CC[C@@H](C(=O)N[C@H](C(=O)N[C@H](C(=O)N[C@@H](CCC(N)=O)C(=O)N[C@@H](CCCCN)C(=O)N[C@@H](CC(C)C)C(=O)N[C@@H](C)C(=O)N[C@@H](Cc2c[nH]cn2)C(=O)N[C@@H](CCC(N)=O)C(=O)N[C@H](C(=O)N[C@@H](Cc2ccc(O)cc2)C(=O)N[C@@H](CCC(N)=O)C(=O)N[C@@H](Cc2ccccc2)C(=O)N[C@H](C(=O)N[C@@H](CC(=O)O)C(=O)N[C@@H](CCCCN)C(=O)N[C@@H](CC(=O)O)C(=O)N[C@@H](CCCCN)C(=O)N[C@@H](CC(=O)O)C(=O)N[C@@H](CC(N)=O)C(=O)N[C@H](C(=O)N[C@@H](C)C(=O)N2CCC[C@H]2C(=O)N[C@@H](CCCNC(=N)N)C(=O)N[C@@H](CO)C(=O)N[C@@H](CCCCN)C(=O)N[C@H](C(=O)N[C@@H](CO)C(=O)N2CCC[C@H]2C(=O)N[C@@H](CCC(N)=O)C(=O)NCC(=O)N[C@@H](Cc2ccc(O)cc2)C(N)=O)[C@@H](C)CC)C(C)C)[C@@H](C)O)[C@@H](C)CC)C(C)C)[C@@H](C)O)NC(=O)[C@H]([C@@H](C)O)NC(=O)CNC(=O)[C@H](Cc2ccccc2)NC(=O)[C@H](CCCNC(=N)N)NC1=O` [Example 13, ((2S,5S,11S,14S,23S)-23-(2-((S)-2-amino-6-palmitamidohexanamido)acetamido)-5-benzyl-2-(3-guanidinopropyl)-11-((R)-1-hydroxyethyl)-3,6,9,12,17,24-hexaoxo-1,4,7,10,13,18-hexaazacyclotetracosane-14-carbonyl)-L-threonyl-ADM(22-52)] (H-K(Palmitoyl)GKRFGTETVQKLAHQIYQFTDKDKDNVAPRSKISPQGY-NH2; lactam 3-8), for which the EC50 was more than 1000 nM in test [1] and 156 nM in test [2].

Consider `CCCCCCCCCCCCCCCC(=O)NCCCC[C@H](N)C(=O)NCC(=O)N[C@H]1CCC(=O)NCCCC[C@@H](C(=O)N[C@H](C(=O)N[C@H](C(=O)N[C@@H](CCC(N)=O)C(=O)N[C@@H](CCCCN)C(=O)N[C@@H](CC(C)C)C(=O)N[C@@H](C)C(=O)N[C@@H](Cc2c[nH]cn2)C(=O)N[C@@H](CCC(N)=O)C(=O)N[C@H](C(=O)N[C@@H](Cc2ccc(O)cc2)C(=O)N[C@@H](CCC(N)=O)C(=O)N[C@@H](Cc2ccccc2)C(=O)N[C@H](C(=O)N[C@@H](CC(=O)O)C(=O)N[C@@H](CCCCN)C(=O)N[C@@H](CC(=O)O)C(=O)N[C@@H](CCCCN)C(=O)N[C@@H](CC(=O)O)C(=O)N[C@@H](CC(N)=O)C(=O)N[C@H](C(=O)N[C@@H](C)C(=O)N2CCC[C@H]2C(=O)N[C@@H](CCCNC(=N)N)C(=O)N[C@@H](CO)C(=O)N[C@@H](CCCCN)C(=O)N(C)[C@H](C(=O)N[C@@H](CO)C(=O)N2CCC[C@H]2C(=O)N[C@@H](CCC(N)=O)C(=O)NCC(=O)N[C@@H](Cc2ccc(O)cc2)C(N)=O)[C@@H](C)CC)C(C)C)[C@@H](C)O)[C@@H](C)CC)C(C)C)[C@@H](C)O)NC(=O)[C@H]([C@@H](C)O)NC(=O)CNC(=O)[C@H](Cc2ccccc2)NC(=O)[C@H](CCCNC(=N)N)NC1=O` [Example 14, ((2S,5S,11S,14S,23S)-23-(2-((S)-2-amino-6-palmitamidohexanamido)acetamido)-5-benzyl-2-(3-guanidinopropyl)-11-((R)-1-hydroxyethyl)-3,6,9,12,20,24-hexaoxo-1,4,7,10,13,19-hexaazacyclotetracosane-14-carbonyl)-L-threonyl-[N-Me-I^47]ADM(22-52)] (H-K(Palmitoyl)GERFGTKTVQKLAHQIYQFTDKDKDNVAPRSK[NMeI]SPQGY-NH2; lactam 3-8), for which the results for the EC50 in test [1] and in test [2] were 32 nM and 150 nM, respectively.

For `CC[C@H](C)[C@H](NC(=O)[C@H](CCC(N)=O)NC(=O)[C@H](Cc1c[nH]cn1)NC(=O)[C@H](C)NC(=O)[C@H](CC(C)C)NC(=O)[C@H](CCCCN)NC(=O)[C@H](CCC(N)=O)NC(=O)[C@@H](NC(=O)[C@@H](NC(=O)[C@@H]1CCCC[C@H](NC(=O)CNC(=O)CN)C(=O)N[C@@H](CCCNC(=N)N)C(=O)N[C@@H](Cc2ccccc2)C(=O)NCC(=O)N[C@@H]([C@@H](C)O)C(=O)N1)[C@@H](C)O)C(C)C)C(=O)N[C@@H](Cc1ccc(O)cc1)C(=O)N[C@@H](CCC(N)=O)C(=O)N[C@@H](Cc1ccccc1)C(=O)N[C@H](C(=O)N[C@@H](CC(=O)O)C(=O)N[C@@H](CCCCN)C(=O)N[C@@H](CC(=O)O)C(=O)N[C@@H](CCCCN)C(=O)N[C@@H](CC(=O)O)C(=O)N[C@@H](CC(N)=O)C(=O)N[C@H](C(=O)N[C@@H](C)C(=O)N1CCC[C@H]1C(=O)N[C@@H](CCCNC(=N)N)C(=O)N[C@@H](CO)C(=O)N[C@@H](CCCCN)C(=O)N[C@H](C(=O)N[C@@H](CO)C(=O)N1CCC[C@H]1C(=O)N[C@@H](CCC(N)=O)C(=O)NCC(=O)N[C@@H](Cc1ccc(O)cc1)C(N)=O)[C@@H](C)CC)C(C)C)[C@@H](C)O` [Example 17, ((2S,5S,11S,14S,19S)-19-(2-(2-aminoacetamido)acetamido)-5-benzyl-2-(3-guanidinopropyl)-11-((R)-1-hydroxyethyl)-3,6,9,12,20-pentaoxo-1,4,7,10,13-pentaazacycloicosane-14-carbonyl)-L threonyl-ADM(22-52)], the EC50 in test [1] and in test [2] was more than 1000 nM throughout.

Turning to `CC[C@H](C)[C@H](NC(=O)[C@H](CCC(N)=O)NC(=O)[C@H](Cc1c[nH]cn1)NC(=O)[C@H](C)NC(=O)[C@H](CC(C)C)NC(=O)[C@H](CCCCN)NC(=O)[C@H](CCC(N)=O)NC(=O)[C@@H](NC(=O)[C@@H](NC(=O)[C@@H]1CCCNC(=O)CC[C@H](NC(=O)CNC(=O)CN)C(=O)N[C@@H](CCCNC(=N)N)C(=O)N[C@@H](Cc2ccccc2)C(=O)NCC(=O)N[C@@H]([C@@H](C)O)C(=O)N1)[C@@H](C)O)C(C)C)C(=O)N[C@@H](Cc1ccc(O)cc1)C(=O)N[C@@H](CCC(N)=O)C(=O)N[C@@H](Cc1ccccc1)C(=O)N[C@H](C(=O)N[C@@H](CC(=O)O)C(=O)N[C@@H](CCCCN)C(=O)N[C@@H](CC(=O)O)C(=O)N[C@@H](CCCCN)C(=O)N[C@@H](CC(=O)O)C(=O)N[C@@H](CC(N)=O)C(=O)N[C@H](C(=O)N[C@@H](C)C(=O)N1CCC[C@H]1C(=O)N[C@@H](CCCNC(=N)N)C(=O)N[C@@H](CO)C(=O)N[C@@H](CCCCN)C(=O)N[C@H](C(=O)N[C@@H](CO)C(=O)N1CCC[C@H]1C(=O)N[C@@H](CCC(N)=O)C(=O)NCC(=O)N[C@@H](Cc1ccc(O)cc1)C(N)=O)[C@@H](C)CC)C(C)C)[C@@H](C)O` [Example 19, ((2S,5S,11S,14S,22S)-22-(2-(2-aminoacetamido)acetamido)-5-benzyl-2-(3-guanidinopropyl)-11-((R)-1-hydroxyethyl)-3,6,9,12,19,23-hexaoxo-1,4,7,10,13,18-hexaazacyclotricosane-14-carbonyl)-L-threonyl-ADM(22-52)] (H-GGERFGT[Orn]TVQKLAHQIYQFTDKDKDNVAPRSKISPQGY-NH2; lactam 3-8), the EC50 in test [1] is more than 1000 nM; in test [2], 21 nM.

For `CC[C@H](C)[C@H](NC(=O)[C@H](CCC(N)=O)NC(=O)[C@H](Cc1c[nH]cn1)NC(=O)[C@H](C)NC(=O)[C@H](CC(C)C)NC(=O)[C@H](CCCCN)NC(=O)[C@H](CCC(N)=O)NC(=O)[C@@H](NC(=O)[C@@H](NC(=O)[C@@H]1CC(=O)NCCCC[C@H](NC(=O)CNC(=O)CN)C(=O)N[C@@H](CCCNC(=N)N)C(=O)N[C@@H](Cc2ccccc2)C(=O)NCC(=O)N[C@@H]([C@@H](C)O)C(=O)N1)[C@@H](C)O)C(C)C)C(=O)N[C@@H](Cc1ccc(O)cc1)C(=O)N[C@@H](CCC(N)=O)C(=O)N[C@@H](Cc1ccccc1)C(=O)N[C@H](C(=O)N[C@@H](CC(=O)O)C(=O)N[C@@H](CCCCN)C(=O)N[C@@H](CC(=O)O)C(=O)N[C@@H](CCCCN)C(=O)N[C@@H](CC(=O)O)C(=O)N[C@@H](CC(N)=O)C(=O)N[C@H](C(=O)N[C@@H](C)C(=O)N1CCC[C@H]1C(=O)N[C@@H](CCCNC(=N)N)C(=O)N[C@@H](CO)C(=O)N[C@@H](CCCCN)C(=O)N[C@H](C(=O)N[C@@H](CO)C(=O)N1CCC[C@H]1C(=O)N[C@@H](CCC(N)=O)C(=O)NCC(=O)N[C@@H](Cc1ccc(O)cc1)C(N)=O)[C@@H](C)CC)C(C)C)[C@@H](C)O` [Example 21, ((2S,5S,11S,14S,22S)-22-(2-(2-aminoacetamido)acetamido)-5-benzyl-2-(3-guanidinopropyl)-11-((R)-1-hydroxyethyl)-3,6,9,12,16,23-hexaoxo-1,4,7,10,13,17-hexaazacyclotricosane-14-carbonyl)-L-threonyl-ADM(22-52)] (H-GGKRFGTDTVQKLAHQIYQFTDKDKDNVAPRSKISPQGY-NH2; lactam 3-8), the EC50 in test [1] and in test [2] was more than 1000 nM in each case.
